The record followed here is paper PMC11285769, “A pan-respiratory antiviral chemotype targeting a transient host multi-protein complex” (Open Biology, 2024).

Entries after “also recorded” stand apart in the source; their conditions may differ. Where two headings read alike, the source gives them in different places.

The term EC50 denotes the concentration that produces a half-maximal response. One may read the IC50 as the concentration at which inhibition is half-maximal. The term bioavailability denotes the share of a dose that reaches the circulation, judged against a reference dose that is usually intravenous.

In data set [1] the test system is FLUV nucleoprotein capsid assembly. The data set is classed as biochemical, influenza (FLUV).
In a further data set the test system is FLUV A/WSN/33. In words: microbe, parasite or virus in culture. It is filed as cell-based, influenza A/WSN/33. The following applies: Influenza A virus, MDCK; for IC50: read-out: IC50 (figure 2a).
Another data set relates to BoCoV BRCV-OK-0514-2. The data set is described as follows: microbe, parasite or virus in culture. It is filed as cell-based, bovine coronavirus. The following applies: Betacoronavirus 1.
The next data set has as its system HRV-16. In words: HRV assay in H1-HeLa cells by TCID50. The data set is classed as cell-based, human rhinovirus 16. The settings on record: Rhinovirus A.
In data set [2] the test system is porcine epidemic diarrhoea virus (PEDV). The data set is described as follows: PEDV pig study. The data set is classed as in vivo. The following applies: newborn pigs infected with PEDV, 4 mg kg^−1 intramuscular, relative to control. On the procedure:
18 litters comprised of 91 individuals of newborn (2–4 days old) crossbred pigs weighing 3 kg were randomized to control (vehicle) or treatment groups. Animals were infected with 1 × 10^5 PFU of PEDV administered orally. Vehicle or drug was administered intramuscular at 4 mg kg^−1 immediately after challenge and again 24 h post-infection. Compound efficacy was determined by survivability. Endpoint of study was 6 days post-infection.

The next data set relates to MHV-68. In words: microbe, parasite or virus in culture. The settings on record: Murine herpesvirus, BHK-21.
Data set [3] has as its system swine influenza virus SIC/SK WT. In words: microbe, parasite or virus in culture. The following applies: MDCK, read-out: PAV-431 EC50. It is filed as cell-based.
Another data set relates to bovine coronavirus. In words: microbe, parasite or virus in culture. It is filed as cell-based. The following applies: Betacoronavirus 1, read-out: PAV-431 EC50.
The subject of another data set is SARS-CoV-2 WA1/2020. In words: microbe, parasite or virus in culture. The data set is classed as cell-based.
Data set [4] deals with respiratory synctial virus straine A-2. The data set is described as follows: microbe, parasite or virus in culture. It is filed as cell-based. The following applies: human respiratory syncytial virus, HEp-2, read-out: PAV-431 EC50.
For a further data set, the system named is Nipah virus rNiV-ZsG. The data set is described as follows: microbe, parasite or virus in culture. The data set is classed as cell-based.
Data set [5] relates to adenovirus serotype 5 strain adenoid 65. The data set is described as follows: microbe, parasite or virus in culture. The data set is classed as cell-based. The settings on record: unidentified adenovirus, A549, read-out: PAV-431 EC50.
The test system of data set [6] is human cytomegalovirus strain AD69. The data set is described as follows: microbe, parasite or virus in culture. It is filed as cell-based. The following applies: Human betaherpesvirus 5, H1-HeLa, read-out: PAV-431 EC50.
Another data set has as its system rabies virus CVS-11. In words: microbe, parasite or virus in culture. It is filed as cell-based.
The subject of data set [7] is members of Orthomyxoviridae, Coronaviridae, Paramyxoviridae, Adenoviridae, Herpesviridae and Picornaviridae. In words: microbe, parasite or virus in culture. The data set is classed as cell-based. The settings on record: Orthoherpesviridae, read-out: EC50 across six respiratory viral families.
A further data set deals with hERG channel (Homo sapiens, UniProt Q12809). In words: hERG channel inhibition.
Chain of hERG channel (Q12809 whole entry): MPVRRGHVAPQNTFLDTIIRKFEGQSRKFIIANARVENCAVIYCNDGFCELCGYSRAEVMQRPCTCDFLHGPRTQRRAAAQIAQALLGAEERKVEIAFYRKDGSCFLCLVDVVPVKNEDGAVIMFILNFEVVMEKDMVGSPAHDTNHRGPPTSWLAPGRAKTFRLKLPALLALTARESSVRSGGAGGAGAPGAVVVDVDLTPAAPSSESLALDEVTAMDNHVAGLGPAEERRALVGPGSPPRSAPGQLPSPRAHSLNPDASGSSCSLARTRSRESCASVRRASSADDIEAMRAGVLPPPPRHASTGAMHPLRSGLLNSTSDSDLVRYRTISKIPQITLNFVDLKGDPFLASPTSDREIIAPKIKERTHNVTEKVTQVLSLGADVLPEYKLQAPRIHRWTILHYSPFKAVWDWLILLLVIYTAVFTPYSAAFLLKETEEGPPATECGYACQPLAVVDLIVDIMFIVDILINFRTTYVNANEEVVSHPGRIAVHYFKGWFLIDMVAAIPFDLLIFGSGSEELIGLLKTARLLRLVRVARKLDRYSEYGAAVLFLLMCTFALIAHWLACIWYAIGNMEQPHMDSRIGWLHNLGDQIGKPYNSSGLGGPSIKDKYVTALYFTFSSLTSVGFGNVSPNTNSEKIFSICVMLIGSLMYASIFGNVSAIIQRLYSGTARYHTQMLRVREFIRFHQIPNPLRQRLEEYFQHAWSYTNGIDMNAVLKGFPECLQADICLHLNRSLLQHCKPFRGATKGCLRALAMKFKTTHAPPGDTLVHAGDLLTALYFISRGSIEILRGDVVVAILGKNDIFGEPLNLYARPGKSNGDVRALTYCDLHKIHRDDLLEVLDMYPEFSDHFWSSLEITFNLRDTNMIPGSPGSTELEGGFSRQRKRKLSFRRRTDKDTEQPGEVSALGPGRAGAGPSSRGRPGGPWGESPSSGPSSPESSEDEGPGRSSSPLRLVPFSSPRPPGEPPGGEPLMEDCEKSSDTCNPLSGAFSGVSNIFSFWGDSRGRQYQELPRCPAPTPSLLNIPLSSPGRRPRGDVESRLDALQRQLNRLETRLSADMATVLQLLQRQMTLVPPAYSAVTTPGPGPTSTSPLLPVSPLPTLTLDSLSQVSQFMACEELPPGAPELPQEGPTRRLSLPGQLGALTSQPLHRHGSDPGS
The next data set addresses 5-HT2B (Homo sapiens, UniProt P41595). The data set is described as follows: CEREP panel off-target: 5-HT2B. The settings on record: high concentrations.
Another data set has as its system RSV A-2 virus. The data set is described as follows: RSV cotton rat study. The data set is classed as in vivo. The following applies: cotton rats, 2 mg kg^−1 IP twice daily, days −1 to 4, plaque assay. Here is the method: Female cotton rats, approximately 5 weeks of age, were obtained from Envigo (formerly Harlan), ear-tagged for identification purposes, and allowed to acclimate for >1 week prior to study start. Animals were housed individually. Vehicle or drug (2 mg kg^−1) was administered by an intraperitoneal route twice daily on study days −1 through day 4. On day 0, animals were infected with 1 × 10^5 PFU of RSV A-2 virus originally obtained from ATCC (VR-1540), administered in a 50 µl volume by an intranasal route approximately 2 h after the morning treatment dose. Back titration of the viral stock and diluted inoculum was performed to confirm the titre of the RSV stock used for infection. All inoculations were performed while the animals were under the influence of inhalant anaesthesia. All animals were euthanized on day 5 and the lungs were processed for determination of RSV titres by plaque assay.

Another data set relates to p62/SQSTM1. The data set is classed as cell-based.
For another data set, the target named is 14-3-3 zeta (YWHAZ) (Homo sapiens, UniProt P63104). It is filed as binding.
Chain of 14-3-3 zeta (YWHAZ) (P63104 whole entry): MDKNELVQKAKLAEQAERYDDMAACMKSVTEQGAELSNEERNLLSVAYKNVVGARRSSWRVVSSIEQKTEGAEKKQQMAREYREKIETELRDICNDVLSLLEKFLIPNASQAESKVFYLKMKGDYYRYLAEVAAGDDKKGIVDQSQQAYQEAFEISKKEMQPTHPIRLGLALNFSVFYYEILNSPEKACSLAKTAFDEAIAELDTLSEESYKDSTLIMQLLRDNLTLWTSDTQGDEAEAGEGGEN
For data set [8] the following is noted: rat, in vivo.
The next data set can be described thus: in vivo. The settings on record: rat.
Data set [9] is described as follows: Pharmacokinetics, tissue uptake and safety in rats. The following applies: 5 mg kg^−1 IP.
Where [10] appears, read: read-out: EC50 against infectious FLUV.
The mark [11] stands for this setting: HRV16, HRV-16, MOI = 5, H1-HeLa cells, TCID50, read-out: EC50.

Chain of 5-HT2B (P41595 whole entry, species assumed): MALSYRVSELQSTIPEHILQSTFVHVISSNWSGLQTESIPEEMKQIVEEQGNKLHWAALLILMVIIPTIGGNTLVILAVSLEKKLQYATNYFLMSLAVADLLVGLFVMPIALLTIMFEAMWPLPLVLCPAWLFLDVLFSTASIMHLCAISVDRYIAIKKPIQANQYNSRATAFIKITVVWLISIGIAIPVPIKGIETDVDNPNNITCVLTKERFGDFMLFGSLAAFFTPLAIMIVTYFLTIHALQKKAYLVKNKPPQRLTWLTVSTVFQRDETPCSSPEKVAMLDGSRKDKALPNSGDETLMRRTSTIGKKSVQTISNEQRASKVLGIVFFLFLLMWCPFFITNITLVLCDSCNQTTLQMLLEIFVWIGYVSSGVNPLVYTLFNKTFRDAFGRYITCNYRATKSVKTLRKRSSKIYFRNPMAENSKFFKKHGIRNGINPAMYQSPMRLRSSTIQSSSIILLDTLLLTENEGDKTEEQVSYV

In the case of `COc1cccc(CNC(=O)c2cc(C3CC3)nn2C)c1OC` [PAV-835], the “assembly of FLUV nucleoprotein into a completed capsid” value in data set [1] is recorded as “blocked assembly of FLUV nucleoprotein into a completed capsid in a dose-dependent manner”. The concentration giving a half-maximal response (EC50) in the data set with FLUV A/WSN/33 was < 1000 nM; with FLUV A/WSN/33 (setting [10]), 42 nM; in the data set with BoCoV BRCV-OK-0514-2 it was < 1000 nM; in the data set on HRV-16 (setting [11]), < 1000 nM; in the data set with MHV-68 it was < 1000 nM. Also, the IC50 in the data set on FLUV A/WSN/33 came to 14.8 nM. Further, the likelihood of survival result in data set [2] was “significantly increased the likelihood of survival”.

`COc1c(CNC(=O)c2cc(C3CC3)nn2C)cccc1OC(F)(F)F` [PAV-431]: the concentration giving a half-maximal response (EC50) in the data set on FLUV A/WSN/33 (read-out: PAV-431 EC50) was 25 nM; in the data set with HRV-16 (HRV16, H1-HeLa, read-out: PAV-431 EC50), < 20 nM; in data set [3], 25 nM; with bovine coronavirus, 50 nM; in the data set with SARS-CoV-2 WA1/2020 (Severe acute respiratory syndrome coronavirus 2, Vero C1008, read-out: PAV-431 EC50), 100 nM; in data set [4], < 25 nM. Moreover, the EC50 with Nipah virus rNiV-ZsG (Henipavirus nipahense, read-out: PAV-431 EC50) is ≤ 50 nM; in [5] it was < 100 nM; in [6], 25 nM; in the data set with rabies virus CVS-11 (Rabies virus CVS-11, read-out: PAV-431 EC50), > 400 nM; in data set [7] it was ≤ 100 nM. For the same molecule, the “efficacy against SARS-CoV-2 WA 1/2020” value with SARS-CoV-2 WA1/2020 is “significant efficacy”. Also, the “activity against Nipah virus” value in the data set with Nipah virus rNiV-ZsG is “comparably potent”. Further, the “activity against rabies virus” value in the data set on rabies virus CVS-11 is reported as “did not show significant activity against rabies virus”. Also, the hERG channel inhibition entry on hERG channel is “negative for hERG channel inhibition”. Also, the “off-target effect at 5-HT2B” value at 5-HT2B was “potential off-target effects at high concentrations could be relevant”. Besides, in the data set on RSV A-2 virus, the “RSV titre in lungs relative to vehicle” value is given as “significant drop in viral titre; also recorded: small but statistically significant drop in RSV titre”. For the same molecule, the “amount of p62 in eluate” value in the data set with p62/SQSTM1 was “restored with PAV-431 treatment”. For the same molecule, at 14-3-3 zeta (YWHAZ), the “14-3-3 binding from PAV-104 resin flowthrough” value is on record as “a substantial amount of the 14-3-3 in the PAV-104 resin flowthrough bound to the PAV-431 resin”. Also, the clearance entry in data set [8] is “quick clearing tendency”. For the same molecule, the distribution in brain result in [8] was “good distribution in brain and lungs”. Also, the distribution in lungs result in data set [8] is “good distribution in brain and lungs”. The distribution in plasma result in data set [8] is recorded as “good distribution in plasma”. The volume of distribution entry in data set [8] is on record as “better volume of distribution than PAV-104”. This molecule yielded a concentration in lungs in data set [8] (ip) of 167 nM. The same molecule gave a concentration in plasma in [8] (ip) of 108 nM. In addition, the “levels obtained, oral route” value in data set [8] (po) is on record as “too low to analyse the PK properties”. In “in vivo”, this molecule showed a bioavailability of 59%. For the same molecule, in [9], the safety of dose entry is recorded as “found to be safe”.

On to `COc1cccc(CNC(=O)c2cc(C(C)(C)C)nn2C)c1OC` [PAV-773], for which, in data set [1], the “assembly of FLUV nucleoprotein into a completed capsid” value is reported as “blocked assembly of FLUV nucleoprotein into a completed capsid in a dose-dependent manner”. Further, the 50% effective concentration (EC50) with FLUV A/WSN/33 was < 1000 nM; with FLUV A/WSN/33 (setting [10]), 177 nM; in the data set on BoCoV BRCV-OK-0514-2, < 1000 nM; in the data set with HRV-16 (setting [11]) it was < 1000 nM; with MHV-68 it was < 1000 nM. Also, in the data set on FLUV A/WSN/33, the half-inhibitory concentration (IC50) was found to be 176 nM. In addition, in data set [2], the likelihood of survival result is reported as “significantly increased the likelihood of survival”.
